Assay results: patent US11389456B2, “Compounds and methods for treating oxalate-related diseases” (OxaluRx, Inc., priority 2018, dated 2022)
≈ marks a conversion by molar mass, not a printed value.

What was measured:
[1] = biological target: recombinant full-length human hydroxyacid oxidase 1 (HAO1), the equivalent of hGOX (Homo sapiens (Human), UniProt Q9UJM8); test: In-vitro human glycolate oxidase (hGOX) assay (Amplex red/HRP fluorescence); assay type: biochemical
Protocol: Biological Activity Assay: In-Vitro Human Glycolate Oxidase (hGOX) Assay
The in-vitro glycolate oxidase assay was performed using recombinant full-length human hydroxyacid oxidase 1 (HAO1), the equivalent of hGOX. […] Purified HAO1 was dissolved in assay buffer consisting of 10 mM NaCl, 110 mM KCl, 2 mM MgCl2, 50 mM HEPES (pH 7.4) and 0.01% Triton™ X-100.

[2] = Solubility in phosphate buffered saline (PBS), pH 7.4; assay type: physicochemical; settings: phosphate buffer (PBS), aqueous buffer, kinetic from dmso stock; phosphate buffered saline pH 7.4, 1% DMSO, 1 hour shaking at room temperature
Protocol: (§1) For testing compound solubility in phosphate buffered saline (PBS), compound stock solutions were prepared at 10 mM in 100% DMSO. For testing in aqueous solution, the phosphate buffer was replaced with deionized, distilled water. Eleven grams Na2HPO4 (FW: 141.96 g/mol) and 3.5 g NaH2PO4.2H2O (FW: 156.03 g/mol) was added to 1 L Milli-Q water and adjusted to a pH to 7.4 with phosphoric acid or sodium hydroxide. For incubation, media were preheated to 37° C. Eight μL aliquots of reference and test compound stock solutions (10 mM) were added into 792 μL of 100 mM phosphate buffer (pH 7.4). The final DMSO concentration was 1%. Sample tubes were shaken for 1 hour at 1000 rpm at room temperature.
(§2) The calibration curve was prepared with 300-μM spiking solution (SS) in MeOH:acetonitrile (4:1). Six μL of 10 mM compound was added in 194 μL MeOH/acetonitrile (4:1). Samples were centrifuged for 10 minutes at 12,000 rpm to precipitate undissolved particles. Supernatants were transferred to a new tube or plate and dilute 10-fold and 100-fold with 100 mM buffer. Samples were prepared for LC-MS/MS analysis by adding 5 μL each sample (undiluted, 10-fold diluted, and 100-fold diluted) and 5 μL of standard curve samples to 95 μL of acetonitrile (containing internal standard).

[3] = Solubility in aqueous solution (deionized, distilled water); assay type: physicochemical; settings: kinetic from dmso stock, 1% DMSO, read-out: Aqueous Solubility H2O
Protocol: as §1, §2

[4] = Metabolic stability in human liver microsomal preparation; assay type: in vitro ADME; settings: pH 7.4, human liver microsomes, NADPH, 37° C.; for half-life at 1 μM: 0-45 min, read-out: Metabolic Stability t1/2
Protocol: For evaluating the metabolic stability in human liver microsomal preparation, three buffers were prepared. Buffer A had 1.0 L of 0.1 M monobasic potassium phosphate buffer containing 1.0 mM EDTA. Buffer B had 1.0 L of 0.1 M dibasic potassium phosphate buffer containing 1.0 mM EDTA. Buffer C had 0.1 M potassium phosphate buffer, 1.0 mM EDTA, adjusted to a pH 7.4 via titrating 700 mL buffer B with buffer A. Reference compound (ketanserin) and test compounds spiking solutions (500 μM) were prepared by adding 10 μL of 10 mM DMSO stock compound solution into 190 μL acetonitrile. A volume of 1.5 μL 500 μM spiking solution and 18.75 μL 20 mg/mL human liver microsomes were added into 479.75 μL of Buffer C on ice. A stock solution of 6 mM NADPH was prepared by dissolving NADPH into Buffer C.
Wells on an assay plate were iced and filled with 30 μL 1.5-μM spiking solution containing 0.75 mg/mL microsomes solution and designated for different timepoints (0-, 5-, 15-, 30-, 45-min). For the 0-min timepoint, 135 μL acetonitrile containing internal standard were added followed by 15 μL of NADPH stock solution (6 mM). All other plates were preincubated at 37° C. for 5 minutes and 15 μL NADPH stock solution (6 mM) were added to the plates to start the reaction. At 5-min, 15-min, 30-min, and 45-min, 135 μL acetonitrile containing internal standard were added to the wells of corresponding plates, respectively, to stop the reaction. After quenching, the plates were shaken on the vibrator (IKA, MTS 2/4) for 10 min at 600 rpm and then centrifuged at 5594×g for 15 minutes (Thermo Multifuge×3R). Fifty μL supernatant from each well were transported into a 96-well sample plate containing 50 μL of ultra-pure water (Millipore, ZMQS50F01) for LC/MS analysis.

[5] = Stability in human plasma; assay type: in vitro ADME; settings: read-out: Plasma Stability T1/2
Protocol: Stability in Human Plasma.
Stock compounds were prepared for testing the stability in human plasma. First, 0.05 M sodium phosphate and 0.07 M NaCl buffer, pH 7.4, were pre-heated. In deionized water, 14.505 g/L Na2HPO 12H2O, 1.483 g/L NaH2PO4.2H2O and 4.095 g/L NaCl were dissolved. The basic solution was titrated with the phosphoric acid to pH 7.40. Frozen plasma was quickly thawed at 37° C. The plasma was centrifuged at 3,000 rpm for 8 minutes to remove clots, then pipetted and pooled as the plasma stock for the experiment. Only plasma within the range of pH 7.4 to pH 8 was used. If higher than pH 8, the plasma was discarded. The initial pH of the plasma was not adjusted to pH 7.4 with acid or by bubbling with carbon dioxide. By using a 5% carbon dioxide incubator and PBS buffer, a pH of 7.4 will be reached after the 4-hour equilibrium dialysis time. Plasma was iced until use.
Spiking solution A with 0.5 mM testing compounds was prepared by adding 10 μL of 10 mM test compounds stock solution to 190 μL DMSO. Spiking solution B with 0.02 mM testing compound was prepared by adding 40 μL of spiking solution A to 960 μL of […] sodium phosphate buffer with 0.5% BSA. The plasma and spiking solution B were prewarmed at 37° C. for 5 minutes. Ten μL of pre-warmed spiking solution B was added into the wells designated for all the time points (5, 15, 30, 45, 60 minutes). For the 0-minute timepoint, 400 μL acetonitrile containing internal standard were added to the wells of 0-minute plate and then 90 μL plasma were added. For the other timepoints, 90 μL of pre-warmed plasma were added into the wells (0, 5, 15, 30, 45, 60 minutes) and the timing was started. At 5, 15, 30, 45, 60 minutes, 400 μL acetonitrile containing internal standard were added to the wells of corresponding plates, respectively, to stop the reaction. After quenching, the plates were shaken on a vibrator (IKA, MTS 2/4) for 10 minutes at 600 rpm and then centrifuged at 5594×g for 15 minutes (Thermo Multifuge×3R). Fifty μL of supernatant was transferred from each well into a 96-well sample plate containing 50 μL ultra-pure water (Millipore, ZMQS50F01) for LC/MS analysis.

[6] = Protein binding (plasma equilibrium dialysis); assay type: in vitro ADME; settings: 5 hours at 37° C.; for fraction unbound at 5 h, 1 μM: read-out: Protein Binding Fraction Bound (converted)
Protocol: For testing protein binding of stock compounds solubilized in DMSO, spiking solutions of test and reference compounds were prepared. Solution A (0.5 mM) was prepared by adding 10 μL of 10 mM stock solution into 190 μL of DMSO. Solution B (0.02 mM) was prepared by adding 8 μL of Solution A into 192 μL of 0.05 M sodium phosphate buffer. The final DMSO concentration in Solution B was 4%.
To prepare test and reference compounds in plasma, a 96-well plate with 380 μL aliquots of plasma in the wells designed for plasma and buffer, respectively. Twenty μL of Solution B (0.02 mM of test and reference compounds) were spiked into the pre-loaded plasma in the 96-well plate. The final test concentration is 1 μM containing 0.2% DMSO.
For dialysis sample loading a plasma again buffer system was prepared by applying aliquots of 100 μL of blank dialysis buffer to the receiver side of dialysis chambers and then applying aliquots of 100 μL of the plasma spiked with test and reference compounds to the donor side of the dialysis chamber. A 25-μL aliquot of the plasma spiked with test and reference compounds was added into a 96-well sample preparation plate as T″0″ plasma samples. Aliquots were mixed with the same volume of blank buffer (50:50, volume:volume). Samples were quenched with 200 μL of acetonitrile containing internal standard. The dialysis block was covered and a shaken at 60 rpm for 5 hours at 37° C.
After a 5-hour incubation, dialyzed samples were prepared from 25-μL aliquots from both the donor and receiver sides of the dialysis apparatus into new sample preparation plates. The aliquots were mixed with same volume of opposite matrixes. The samples were quenched with 200 μL acetonitrile containing internal standard. All 0-hour and 5-hour samples were vortexed at 600 rpm for 10 min followed by centrifugation at 5594×g for 15 minutes (Thermo Multifuge×3R). Fifty μL of the supernatants were transferred to anew 96-well plate and mixed with 50 μL Milli-Q water. The sample plate was covered and frozen at −20° C. until LC/MS/MS analysis.

Sequence of recombinant full-length human hydroxyacid oxidase 1 (HAO1), the equivalent of hGOX (Q9UJM8 whole entry): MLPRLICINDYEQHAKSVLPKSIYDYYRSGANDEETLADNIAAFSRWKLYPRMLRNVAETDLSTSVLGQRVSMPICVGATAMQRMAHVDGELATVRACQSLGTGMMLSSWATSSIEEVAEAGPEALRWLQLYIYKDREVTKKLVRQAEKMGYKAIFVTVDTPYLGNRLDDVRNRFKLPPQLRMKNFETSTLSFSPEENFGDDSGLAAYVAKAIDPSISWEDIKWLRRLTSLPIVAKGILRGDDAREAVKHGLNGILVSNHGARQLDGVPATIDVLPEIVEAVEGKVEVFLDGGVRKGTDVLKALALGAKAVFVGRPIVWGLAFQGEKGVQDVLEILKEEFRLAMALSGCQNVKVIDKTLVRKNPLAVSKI

O=C(O)c1nn[nH]c1Oc1ccc(Cl)cc1 [Example I-033, 5-(4-Chlorophenoxy)-1H-1,2,3-triazole-4-carboxylic acid]
IC50 [1]: 67 nM | solubility at 1 h [2]: 121 µM (≈ 29 µg/mL) | solubility at 1 h [3]: 108 µM (≈ 25.8 µg/mL) | CLint scaled at 1 μM [4]: < 0.15 mL/min/kg | half-life at 1 μM [4]: > 83.3 h | half-life at 2 μM [5]: 1.26 h | recovery at 5 h, 1 μM [6]: 123%

O=C(O)c1nn[nH]c1Oc1cccc(-c2cc(Cl)cc(Cl)c2)c1 [Example I-302, 5-((3′,5′-Dichloro-[1,1′-biphenyl]-3-yl)oxy)-1H-1,2,3-triazole-4-carboxylic acid]
IC50 [1]: 3 nM | solubility at 1 h [2]: 112 µM (≈ 39 µg/mL) | solubility at 1 h [3]: 90.7 µM (≈ 31.7 µg/mL) | CLint scaled at 1 μM [4]: < 0.15 mL/min/kg | half-life at 1 μM [4]: > 83.3 h | half-life at 2 μM [5]: 1.67 h | recovery at 5 h, 1 μM [6]: 104% | fraction unbound at 5 h, 1 μM [6]: 0.017

O=C(O)c1nn[nH]c1Oc1ccc(C2CCCC2)cc1 [Example I-265, 5-(4-Cyclopentylphenoxy)-1H-1,2,3-triazole-4-carboxylic acid]
IC50 [1]: 25 nM | solubility at 1 h [2]: 107 µM (≈ 29.2 µg/mL) | solubility at 1 h [3]: 100 µM (≈ 27.4 µg/mL) | CLint scaled at 1 μM [4]: 18.6 mL/min/kg | half-life at 1 μM [4]: 1.55 h | half-life at 2 μM [5]: 1.44 h | recovery at 5 h, 1 μM [6]: 110%

O=C(O)c1nn[nH]c1Oc1cccc(-c2ccc3ccccc3c2)c1 [Example I-178, 5-(3-(Naphthalen-2-yl)phenoxy)-1H-1,2,3-triazole-4-carboxylic acid]
IC50 [1]: 13000 nM | solubility at 1 h [2]: 97.9 µM (≈ 32.4 µg/mL) | solubility at 1 h [3]: 83.4 µM (≈ 27.6 µg/mL) | CLint scaled at 1 μM [4]: 7.08 mL/min/kg | half-life at 1 μM [4]: 4.09 h | half-life at 2 μM [5]: 0.985 h | recovery at 5 h, 1 μM [6]: 109%

O=C(O)c1nn[nH]c1Oc1ccc(-c2ccc3ccccc3c2)cc1 [Example I-177, 5-(4-(Naphthalen-2-yl)phenoxy)-1H-1,2,3-triazole-4-carboxylic acid]
IC50 [1]: 12 nM | solubility at 1 h [2]: 89.3 µM (≈ 29.6 µg/mL) | solubility at 1 h [3]: 45.7 µM (≈ 15.1 µg/mL) | CLint scaled at 1 μM [4]: 3.07 mL/min/kg | half-life at 1 μM [4]: 9.43 h | half-life at 2 μM [5]: 1.12 h | recovery at 5 h, 1 μM [6]: 99.3%

O=C(O)c1nn[nH]c1Oc1ccc(-c2ccc3c(c2)OCO3)cc1 [Example I-304, 5-(4-(Benzo[d][1,3]dioxol-5-yl)phenoxy)-1H-1,2,3-triazole-4-carboxylic acid]
IC50 [1]: 4 nM | solubility at 1 h [2]: 111 µM (≈ 36.2 µg/mL) | solubility at 1 h [3]: 115 µM (≈ 37.4 µg/mL) | CLint scaled at 1 μM [4]: 5.47 mL/min/kg | half-life at 1 μM [4]: 5.3 h | half-life at 2 μM [5]: 6.68 h | recovery at 5 h, 1 μM [6]: 105% | fraction unbound at 5 h, 1 μM [6]: 0.007

O=C(O)c1nn[nH]c1Oc1ccc(C2CC2)cc1 [Example I-294, 5-(4-Cyclopropylphenoxy)-1H-1,2,3-triazole-4-carboxylic acid]
IC50 [1]: 53 nM | solubility at 1 h [2]: 108 µM (≈ 26.4 µg/mL) | solubility at 1 h [3]: 108 µM (≈ 26.4 µg/mL) | CLint scaled at 1 μM [4]: 3.4 mL/min/kg | half-life at 1 μM [4]: 8.52 h | half-life at 2 μM [5]: 1.71 h | recovery at 5 h, 1 μM [6]: 111%

COc1ccc(-c2ccc(Oc3[nH]nnc3C(=O)O)cc2)cc1 [Example I-153, 5-((4′-Methoxy-[1,1′-biphenyl]-4-yl)oxy)-1H-1,2,3-triazole-4-carboxylic acid]
IC50 [1]: 10 nM | half-life at 2 μM [5]: 3.11 h | recovery at 5 h, 1 μM [6]: 116% | fraction unbound at 5 h, 1 μM [6]: 0.103

Cc1ccc(-c2ccc(Oc3[nH]nnc3C(=O)O)cc2)cc1 [Example I-151, 5-((4′-Methyl-[1,1′-biphenyl]-4-yl)oxy)-1H-1,2,3-triazole-4-carboxylic acid]
IC50 [1]: 11 nM | solubility at 1 h [2]: 83.2 µM (≈ 24.6 µg/mL) | solubility at 1 h [3]: 53 µM (≈ 15.6 µg/mL) | CLint scaled at 1 μM [4]: < 0.15 mL/min/kg | half-life at 1 μM [4]: > 83.3 h | half-life at 2 μM [5]: 0.669 h

O=C(O)c1nn[nH]c1Oc1ccc(S(F)(F)(F)(F)F)cc1 [Example I-049, 5-(4-Pentafluorosulfanylphenoxy)-1H-1,2,3-triazole-4-carboxylic acid]
IC50 [1]: 50 nM | half-life at 2 μM [5]: 3.65 h | recovery at 5 h, 1 μM [6]: 107% | fraction unbound at 5 h, 1 μM [6]: 0.006
